Experiments:
[1] = molar heat capacity at constant pressure; xn = mol fraction of the nth substance listed; settings: 101 kPa, Liquid, Small sample (50 mg) DSC
[2] = excess molar enthalpy (molar enthalpy of mixing); xn = mol fraction of the nth substance listed; settings: 303.15 K, 101 kPa, Liquid, Calvet calorimetry
[3] = xn = mol fraction of the nth substance listed; settings: 101 kPa, Liquid, Vibrating tube method

CCn1cc[n+](C)c1.O=S(=O)([O-])C(F)(F)F [1-ethyl-3-methylimidazolium trifluoromethanesulfonate] + CCO
Settings | mass density, [3] [kg/m3] | molar heat capacity at constant pressure, [1] [J/K/mol]
293.15 K, x1 = 0.0523 | 883.9 | 125.1
293.15 K, x1 = 0.1 | 953 | 138.9
293.15 K, x1 = 0.1959 | 1059.7 | 164.1
293.15 K, x1 = 0.2927 | 1138.5 | 188.3
293.15 K, x1 = 0.3819 | 1194.5 | 209.7
293.15 K, x1 = 0.4917 | 1248.4 | 236
293.15 K, x1 = 0.5983 | 1289.4 | 261.7
293.15 K, x1 = 0.6899 | 1318.8 | 283.9
293.15 K, x1 = 0.7829 | 1343.7 | 306.8
293.15 K, x1 = 0.8784 | 1365.6 | 330.5
298.15 K, x1 = 0.0523 | 879.6 | 126.8
298.15 K, x1 = 0.1 | 948.7 | 140.4
298.15 K, x1 = 0.1959 | 1055.4 | 165.4
298.15 K, x1 = 0.2927 | 1134.1 | 189.5
298.15 K, x1 = 0.3819 | 1190.2 | 211
298.15 K, x1 = 0.4917 | 1244.1 | 237.4
298.15 K, x1 = 0.5983 | 1285.1 | 263.3
298.15 K, x1 = 0.6899 | 1314.5 | 285.4
298.15 K, x1 = 0.7829 | 1339.4 | 308.5
298.15 K, x1 = 0.8784 | 1361.4 | 332.5
303.15 K, x1 = 0.0523 | 875.3 | 128.4
303.15 K, x1 = 0.1 | 944.4 | 142
303.15 K, x1 = 0.1959 | 1051.1 | 166.7
303.15 K, x1 = 0.2927 | 1129.8 | 190.7
303.15 K, x1 = 0.3819 | 1185.9 | 212.3
303.15 K, x1 = 0.4917 | 1239.9 | 238.8
303.15 K, x1 = 0.5983 | 1280.9 | 264.9
303.15 K, x1 = 0.6899 | 1310.3 | 286.9
303.15 K, x1 = 0.7829 | 1335.2 | 310.3
303.15 K, x1 = 0.8784 | 1357.2 | 334.5
308.15 K, x1 = 0.0523 | 871 | 130.3
308.15 K, x1 = 0.1 | 940.2 | 143.8
308.15 K, x1 = 0.1959 | 1046.8 | 168.1
308.15 K, x1 = 0.2927 | 1125.6 | 192.1
308.15 K, x1 = 0.3819 | 1181.6 | 213.8
308.15 K, x1 = 0.4917 | 1235.6 | 240.4
308.15 K, x1 = 0.5983 | 1276.7 | 266.5
308.15 K, x1 = 0.6899 | 1306.1 | 288.5
308.15 K, x1 = 0.7829 | 1331 | 312.2
308.15 K, x1 = 0.8784 | 1353 | 336.6
313.15 K, x1 = 0.0523 | 866.7 | 132.2
313.15 K, x1 = 0.1 | 935.8 | 145.5
313.15 K, x1 = 0.1959 | 1042.5 | 169.5
313.15 K, x1 = 0.2927 | 1121.3 | 193.5
313.15 K, x1 = 0.3819 | 1177.3 | 215.2
313.15 K, x1 = 0.4917 | 1231.4 | 241.9
313.15 K, x1 = 0.5983 | 1272.4 | 268.2
313.15 K, x1 = 0.6899 | 1301.9 | 290.1
313.15 K, x1 = 0.7829 | 1326.8 | 314.1
313.15 K, x1 = 0.8784 | 1348.8 | 338.7
318.15 K, x1 = 0.0523 | 862.2 | 134.2
318.15 K, x1 = 0.1 | 931.4 | 147.4
318.15 K, x1 = 0.1959 | 1038.1 | 171.1
318.15 K, x1 = 0.2927 | 1116.9 | 195
318.15 K, x1 = 0.3819 | 1173 | 216.9
318.15 K, x1 = 0.4917 | 1227.1 | 243.6
318.15 K, x1 = 0.5983 | 1268.2 | 270
318.15 K, x1 = 0.6899 | 1297.7 | 291.9
318.15 K, x1 = 0.7829 | 1322.6 | 316.1
318.15 K, x1 = 0.8784 | 1344.7 | 340.9

[2]
Settings | excess molar enthalpy [kJ/mol]
x1 = 0.1271 | 1.22
x1 = 0.2489 | 1.72
x1 = 0.3752 | 1.88
x1 = 0.5006 | 1.77
x1 = 0.6176 | 1.52
x1 = 0.7501 | 1.09
x1 = 0.869 | 0.599

CCCCn1cc[n+](C)c1.F[B-](F)(F)F [1-butyl-3-methylimidazolium tetrafluoroborate] + CCO
Settings | mass density, [3] [kg/m3] | molar heat capacity at constant pressure, [1] [J/K/mol]
293.15 K, x1 = 0.0987 | 903 | 150.5
293.15 K, x1 = 0.1923 | 976.5 | 174.4
293.15 K, x1 = 0.3004 | 1037.8 | 197.8
293.15 K, x1 = 0.3885 | 1075.8 | 219.8
293.15 K, x1 = 0.4865 | 1108.8 | 240.1
293.15 K, x1 = 0.573 | 1132.8 | 258.3
293.15 K, x1 = 0.6738 | 1155.4 | 281.8
293.15 K, x1 = 0.7531 | 1170.9 | 300.8
293.15 K, x1 = 0.8821 | 1191.8 | 330.9
298.15 K, x1 = 0.0987 | 898.9 | 150
298.15 K, x1 = 0.1923 | 972.5 | 173.6
298.15 K, x1 = 0.3004 | 1033.9 | 198.8
298.15 K, x1 = 0.3885 | 1071.9 | 219.6
298.15 K, x1 = 0.4865 | 1105 | 241.2
298.15 K, x1 = 0.573 | 1129.1 | 259.7
298.15 K, x1 = 0.6738 | 1151.7 | 283.5
298.15 K, x1 = 0.7531 | 1167.2 | 302.6
298.15 K, x1 = 0.8821 | 1188.2 | 333
303.15 K, x1 = 0.0987 | 894.8 | 149.9
303.15 K, x1 = 0.1923 | 968.5 | 173.5
303.15 K, x1 = 0.3004 | 1030 | 199.7
303.15 K, x1 = 0.3885 | 1068 | 219.9
303.15 K, x1 = 0.4865 | 1101.2 | 242.3
303.15 K, x1 = 0.573 | 1125.3 | 261.1
303.15 K, x1 = 0.6738 | 1148 | 285.2
303.15 K, x1 = 0.7531 | 1163.5 | 304.3
303.15 K, x1 = 0.8821 | 1184.6 | 335.1
308.15 K, x1 = 0.0987 | 890.8 | 150.3
308.15 K, x1 = 0.1923 | 964.6 | 174.2
308.15 K, x1 = 0.3004 | 1026.1 | 200.6
308.15 K, x1 = 0.3885 | 1064.2 | 220.6
308.15 K, x1 = 0.4865 | 1097.4 | 243.4
308.15 K, x1 = 0.573 | 1121.6 | 262.4
308.15 K, x1 = 0.6738 | 1144.4 | 286.9
308.15 K, x1 = 0.7531 | 1159.9 | 306.2
308.15 K, x1 = 0.8821 | 1181 | 337.2
313.15 K, x1 = 0.0987 | 886.6 | 151.1
313.15 K, x1 = 0.1923 | 960.5 | 175.6
313.15 K, x1 = 0.3004 | 1022.2 | 201.4
313.15 K, x1 = 0.3885 | 1060.4 | 221.7
313.15 K, x1 = 0.4865 | 1093.6 | 244.4
313.15 K, x1 = 0.573 | 1117.9 | 263.7
313.15 K, x1 = 0.6738 | 1140.7 | 288.5
313.15 K, x1 = 0.7531 | 1156.3 | 308
313.15 K, x1 = 0.8821 | 1177.4 | 339.3
318.15 K, x1 = 0.0987 | 882.4 | 152.4
318.15 K, x1 = 0.1923 | 956.5 | 177.8
318.15 K, x1 = 0.3004 | 1018.2 | 202.3
318.15 K, x1 = 0.3885 | 1056.5 | 223.3
318.15 K, x1 = 0.4865 | 1089.8 | 245.6
318.15 K, x1 = 0.573 | 1114.2 | 265.1
318.15 K, x1 = 0.6738 | 1137.1 | 290.1
318.15 K, x1 = 0.7531 | 1152.7 | 309.9
318.15 K, x1 = 0.8821 | 1173.8 | 341.4
